Source: patent US20190136292A1, “Universal Calibration Method for Assaying Enzymatic Inhibitors” (Diagnostica Stago, priority 2016, published 2019)
Values joined by “and” are separate entries in the source; they are usually repeats but may differ in a detail not shown here. Equal entries are not always repeated. Where two headings read alike, the source gives them in different places.

Molecular target: F.Xa (factor Xa of bovine origin) (Bos taurus, UniProt P00743)
Details: for conversion chart constant e (equation 2, anti-Xa activity % to ng/ml) / conversion chart constant i (equation 2, anti-Xa activity % to ng/ml): non-linear regression of equation 2
Text: The reagents from the commercial kit STA®—Liquid Anti-Xa (Diagnostica Stago, Asniéres sur Seine, France), F.Xa (factor Xa of bovine origin) and substrate (MAPA-Gly-Arg-pNA) were used. These commercial reagents and also the pool of normal human plasma Pool Norm (Diagnostica Stago, Asnieres sur Seine, France), the Owren Koller buffer (OKB) (pH 7.35, STA®—Owren-Koller, Diagnostica Stago, Asnieres sur Seine, France) and the desorption solution (DU) STA®—Desorb U (Diagnostica Stago, Asnieres sur Seine, France) were regenerated at room temperature for 30 minutes, as recommended by the manufacturer.
The kinetics were monitored by colorimetry at 405 nm, detecting the release of para-nitroanilide (pNA). The optical density (OD) was measured every two seconds. Two methodologies were optimized for assaying the three direct oral anti-Xa anticoagulants: the broad-range methodology and the narrow-range methodology. This is because the broad-range methodology makes it possible to assay the anticoagulants over the whole of the desired range; however, since the measurement of low concentrations of these anticoagulants requires great precision a narrow-range methodology was therefore developed.
In broad range, 6.25 μl of biological sample (plasma) were diluted with OKB in a final volume of 50 μl. The microcuvette was incubated for 240 seconds at 37° C. in the presence of 150 μl of substrate. The reaction was started by the addition of 150 μl of F.Xa, incubated beforehand at 37° C. In narrow range, 25 μl of sample were diluted with 25 μl of OKB. The experimental conditions for addition of substrate and enzyme are the same as for the broad-range methodology. The gradients were determined between 50 and 80 seconds.
The calibration was carried out from a range of F.Xa composed of 10 points ranging from 10% to 100% F.Xa, corresponding to an anti-Xa activity ranging from 90% to 0%. The range was created from reagents from the kit STA® Liquid Anti-Xa. The F.Xa (2 ml, 1.8 ml, . . . , 0.2 ml) was diluted in OKB (0 ml, 0.2 ml . . . 1.8 ml) for a final volume of 2 ml. The pool of healthy plasmas dated 04/2014 was used for this experiment. 5% DMSO was diluted to 1/20th in the plasma. The results (measurements of the OD/min between 50 and 80 seconds) were determined in two replicates.
The gradients of the kinetics measured for the 10 calibration points make it possible to plot the graph of anti-Xa activity (%) as a function of the OD/min. The equation of the line obtained is used to convert the OD/min of the samples tested into anti-Xa activity as percentage. The equation of the line is given by a polynomial regression of first order or of second order.
The parameters of the chart, specific to each direct oral anticoagulant (DOA), were determined for both of the methodologies (broad-range methodology and narrow-range methodology) by a non-linear regression of equation 2 on a few experimental points. […] The OD/min was measured for each sample between 50 and 80 seconds.
The limit of blank (LoB) was determined according to a standard procedure. The five different plasmas used were those dated January 2011, March 2012, April 2014, November 2014 and February 2015. Four replicates were carried out each day for three days, on the same automated device. The tests were carried out for the broad-range and narrow-range methodologies.
The limit of detection (LoD) was determined according to a standard procedure. Low-analyte plasmas were prepared. The overloads were carried out to 1/20th. The plasma dated 04/2014 was used. […] In narrow range, the concentrations of the overloads were 5 ng/ml for the three anticoagulants. Five overloads were produced for a final volume of 900 μl. When the regression of the universal calibration was a second-order polynomial, the concentrations of analytes in broad range and in narrow range were 2 ng/ml for the three direct oral anticoagulants (DOAs). The final volume of the overloads was 1000 μl. Each overload was separated into three tubes.

[1] = broad-range methodology, plasma sample diluted 1/8 in OKB, linear universal calibration
[2] = narrow-range methodology, plasma sample diluted 1/2 in OKB, linear universal calibration
[3] = optimization in narrow-range methodology, universal calibration regressed by second-order polynomial

Sequence of F.Xa (factor Xa of bovine origin) (P00743 234-492 limits assumed): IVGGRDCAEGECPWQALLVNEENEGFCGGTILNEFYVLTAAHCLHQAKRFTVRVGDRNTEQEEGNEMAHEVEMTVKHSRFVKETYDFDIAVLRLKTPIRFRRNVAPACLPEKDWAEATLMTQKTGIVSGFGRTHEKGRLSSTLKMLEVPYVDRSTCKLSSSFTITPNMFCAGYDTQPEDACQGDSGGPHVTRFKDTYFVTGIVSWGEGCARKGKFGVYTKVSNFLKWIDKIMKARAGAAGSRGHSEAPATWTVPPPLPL
Sequence of F.Xa (factor Xa of bovine origin) (P00743 41-180 partner limits assumed): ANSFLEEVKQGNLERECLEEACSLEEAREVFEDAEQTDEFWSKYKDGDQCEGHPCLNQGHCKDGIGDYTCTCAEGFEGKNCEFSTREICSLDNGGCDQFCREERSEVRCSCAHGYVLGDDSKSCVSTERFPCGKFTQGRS

Question: Which “conversion chart constant e (equation 2, anti-Xa activity % to ng/ml)” value (broad-range methodology) does the source give for `COc1ccc(-n2nc(C(N)=O)c3c2C(=O)N(c2ccc(N4CCCCC4=O)cc2)CC3)cc1` [apixaban] here?
Answer: Its value is 14.66.

Question: And the “conversion chart constant i (equation 2, anti-Xa activity % to ng/ml)” value (broad-range methodology)?
Answer: Its value is 1.35.

Question: And the “LoB (limit of blank)” value [1]?
Answer: Its value is 16.613 ng/mL.

Question: And the “LoD (limit of detection)” value [1]?
Answer: Its value is 21.8 ng/mL and 21.723 ng/mL.

Question: And the “conversion chart constant e (equation 2, anti-Xa activity % to ng/ml)” value (narrow-range methodology)?
Answer: The value was 13.23.

Question: What about the “conversion chart constant i (equation 2, anti-Xa activity % to ng/ml)” value (narrow-range methodology) of the same compound?
Answer: Its value is 2.91.

Question: And the “LoB (limit of blank)” value [2]?
Answer: Its value is 5.450 ng/mL.

Question: And the “LoD (limit of detection)” value [2]?
Answer: Its value is 6.9 ng/mL and 6.882 ng/mL.

Question: And the “LoB (limit of blank)” value [3]?
Answer: Its value is 2.759 ng/mL.

Question: What about the “LoD (limit of detection)” value [3] of the same compound?
Answer: The value was 4.001 ng/mL.
